Reference: patent US20150307938A1, “METHOD TO IDENTIFY A NOVEL CLASS OF IMMUNOLOGIC ADJUVANTS” (Lancell, L.L.C., priority 2011, published 2015)

Test system: tumor
Design: species or system mice
Details: mouse, in vivo

SMILES: CCCCOC(=O)c1ccccc1C(=O)OCCCC [DBP, dibutylphthalate]
- tumor-specific immunity: Protective and therapeutic tumor-specific immunity were induced
